According to patent US6787564B2, “Optically active clausenamides, process of the preparation thereof, pharmaceutical composition containing the same and their medical use” (Institute of Materia Medica, Chinese Academy of Medical …, priority 2002, dated 2004):

System: mGlu receptor
Assay: effect of mGlu antagonist on LTP in hippocampal DG in vivo
Design: species or system rats
Text: The rats were anaesthetized with urethane carbonate.
3. Glutamate, the most abundant excitatory neurotransmitter in the CNS, released from presynaptic site and activated a variety of postsynaptic receptor, and then potentiated synaptic transmission. mGlu R (metabotropic glutamate receptor) indirectly regulates signaling and activats various second messenger cascades.

SMILES: CC(N)(C(=O)O)c1ccc(C(=O)O)cc1 (racemic) [(±) MCPG, (±)-α-methyl-4-carboxyphenylglycine]
- induction of LTP induced by HFS and levoclausenamide (10 μmol, icv): inhibited the induction of LTP
- established LTP (given 15 min after HFS or levoclausenamide): reversed the established LTP
